According to patent US10364263B2, “Cyclic phosphates and cyclic phosphoramidates for the treatment of neurologic disorders” (Retrophin, Inc., priority 2015, dated 2019):
Like-named read-outs stand apart in the source and are kept apart here. Each block holds one compound with its values, some of them ahead of it.

Experiments:
[1] = Stability in mouse plasma; format: in vitro ADME; details: mouse, plasma; for t1/2, Mouse Plasma, Diastereoisomer B: 3 µM
Summary of the method: (§1)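 Test compound at 3 μM (0.1% DMSO) was incubated in mouse or human plasma at 37 °C and sampled in duplicate at 0, 10, 20, 30, 40 and 60 min. Reactions were stopped with acetonitrile/formic acid containing internal standard. Remaining parent was measured by UPLC-MS/MS without a calibration curve.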

[2] = test system: PANK2 silenced human neuroblastoma IMR32 cells (PANK2−/−); assay: Coenzyme A assay in PANK2 silenced cells (LC-MS quantification of free CoA); format: cell-based; details: compound added twice (24 h + 24 h), relative to 0.1% DMSO controls
Summary of the method: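 PANK2 shRNA-silenced IMR32 neuroblastoma cells were treated with compound (0.1% DMSO) for 24 h, then re-dosed with fresh compound for a further 24 h at 37 °C. TFA extracts of 1×10^6 cells were assayed for free CoA by LC-MS/MS (MRM 768.1→261.6/136.1). Results are given as fold change versus DMSO controls.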

[3] = Stability in human plasma; format: in vitro ADME; details: human, plasma, 37° C.
Summary of the method: as §1

[4] = Chemical stability in aqueous solution (phosphate buffered saline, NMR)
Description: (§2) To measure chemical stability in aqueous solution, the half-life (t1/2), or time needed for the concentration to decrease by half, was determined for select compounds in phosphate buffered saline solution. Compounds were dissolved in a solution containing 10 mM phosphate buffer (pH 7.5) and 5% of D2O to a final concentration of −1 mM. All spectra were obtained at 37° C. on a Bruker Avance 600 NMR spectrometer equipped with an inverse broad-band probe with z-gradients. Data were obtained every 15 min for a total time period of 4 h or longer, according to the observed stability. ^31P NMR was performed at 242.55 MHz, with gated decoupling of the protons. An observation frequency range of 14619.9 Hz and 32 K complex data points were used for acquisition. A pulse angle of 90° and a 4-sec pulse cycle were utilized. Thirty-two accumulations were obtained before Fourier transformation of the free induction decay. ^1H NMR spectra were acquired using the 1DNOESY experiment with water presaturation for better solvent suppression. An observation frequency range of 12019.23 Hz, a 10-sec pulse cycle, and 32 K complex data points were used for acquisition. Sixty-four scans were added prior to Fourier transformation. Integral data were obtained using the TopSpin software.
(§3) Stability was determined based on analysis of disappearance of the compounds as a function of incubation time. Quantification of test compounds was measured as a peak area relative to an internal standard. The elimination constant, k, was calculated by plotting mean disappearance values on a semi-logarithmic scale and fitting with a best fit linear regression. The half-life (t1/2) expressed in hours was derived using Equation 1: t1/2=ln2/(−k). Equation 1:

[5] = Stability in human hepatocytes; format: in vitro ADME; details: for half-life at 5 µM: t1/2, Human Hepatocytes
[6] = Permeability in porcine brain endothelial cell blood-brain barrier model; format: in vitro ADME; details: pig (endothelial cells), co-cultured with rat astrocytes, pH 7.4, PBECs/As blood-brain barrier model, luminal to basal
Description: Compounds disclosed herein show the potential to reach mammalian brain by crossing the blood-brain barrier (BBB) from systemic circulation. […] The porcine brain endothelial cell permeability assay is an in vitro BBB model to be used for the prediction of central nervous system (CNS) drug permeability in vivo and for ranking or prioritization of compounds according to their permeability. This system can also be used for mechanistic studies and drug delivery strategies via receptor-mediated transport (transcytosis). The system is a two-dimensional co-culture, non-contact model of two types of primary cells: primary brain endothelial cells obtained from fresh porcine brains, and primary rat astrocytes, obtained from neonatal rats. This ensures barrier formation and functional expression of key transporters.
The endothelial cells were cultured on rat-tail collagen type I and human fibronectin coated Transwell polycarbonate inserts (surface area 0.7 cm^2; pore size 0.4 μm) and the inserts were placed in 24-well plates containing confluent rat astrocytes. This system allows for the formation of a differentiated BBB model suitable for compound permeability in 10 days.
On the day of the experiment, culture medium was removed and cells were pre-incubated for 30 min with HBSS containing 20 mM Hepes pH 7.4 and 0.1% BSA. Donor volume (apical) was 400 μl and receiver volume (basal) 900 μl. Compounds were diluted in assay medium (at the desired concentration) and added to the luminal side (to mimic blood to brain passage). Transport was measured usually after 60 min by detecting the amount of compound from the basal (brain side). The integrity of the cell layers was assessed by measuring the transendothelial electrical resistance (TEER) and by monitoring FITC-dextran (40 KDa) permeation. Inserts with TEER values […] were selected for permeability studies. As FITC-dextran cannot freely permeate lipophilic barriers, a high degree of FITC-dextran transport indicates poor integrity of the cell layer and wells with high FITC-dextran permeability were excluded. FITC-dextran was included as internal control in each insert used for permeability studies. Fluorescence was measured using a fluorimetric detector. Radioactivity was measured by scintillation counting. For LC-MS/MS analysis, aliquots (200 μl) from the basal compartment were diluted with an equal volume of 100% acetonitrile containing 0.1% formic acid, centrifuged to remove cell debris, and evaporated under N2. After reconstitution, samples were analyzed by LC-MS/MS. Mass balance was determined considering the amount of compound recovered in the donor and receiver chamber at the end of the assay relative to the amount added to the donor chamber at time 0.
Permeability was defined as the apparent permeability coefficient (Papp), which is a measure of the appearance rate of the compound in the receiver chamber, expressed in cm/s. Papp is calculated according the following equation: Papp[cm/sec]=Vd*ΔMr/A*Md*Δt, Equation 2: where
Vd=volume in the donor compartment in cm^3 or mL;
ΔMr=total amount of compound in the receiver compartment after t seconds;
Md=donor amount (added at time 0)
Δt=time measured in seconds
A=filter area in cm^2 (for 24 well plate, A=0.7 cm^2).
To correct for the contribution of filter and substrate, Papp was also determined for the cell-free system. Permeability of the endothelial cell layer was determined using the following equation: […], Equation 3: where
Ptotal=the P of the total system,
Pf=P for the cell-free filter, and
Pe=P for the endothelial cell layer alone. In this equation, the total resistance of the system towards passage of a substance is additively composed of two […] resistances: that of the cell monolayer and that of the filter.

[7] = Stability in mouse hepatocytes; format: in vitro ADME
physchem = details: buffer, phosphate buffered saline, 10 mM phosphate buffer pH 7.5, 37° C.
Description: as §2, §3

[8] = Diastereoisomer A (upfield shift in 31P NMR), read-out: t1/2, Human Plasma, Diastereoisomer A (converted)
[9] = Diastereoisomer B, read-out: t1/2, Human Plasma, Diastereoisomer B (converted)
[10] = pH 7.5, t1/2 (h) Diastereoisomer A, 10 mM phosphate buffer pH 7.5, 37° C., Diastereoisomer A = upfield shift in the 31P NMR
[11] = pH 7.5, t1/2 (h) Diastereoisomer B, 10 mM phosphate buffer pH 7.5, 37° C., Diastereoisomer B
[12] = Diastereoisomer A, read-out: Papp Diastereoisomer A
[13] = t1/2, Mouse Hepatocytes, Diastereoisomer A
[14] = t1/2, Mouse Hepatocytes, Diastereoisomer B
[15] = pH 7.5, t1/2 (h) Diastereoisomer A, Diastereoisomer A = upfield shift in the 31P NMR
[16] = pH 7.5, t1/2 (h) Diastereoisomer B, Diastereoisomer B

Compound: COC(=O)CCNC(=O)[C@@H]1O[P@@](OCCc2ccccc2)OCC1(C)C [compound 58, methyl 3-((2S,4R)-5,5-dimethyl-2-phenethoxy-1,3,2-dioxaphosphinane-4-carboxamido)propanoate]
half-life at 1 mM ([4]; pH 7.5): > 80 h

Compound: CCc1cc(C(=O)OCO[P@@]2(=O)OCC(C)(C)[C@H](C(=O)NCCC(=O)OC)O2)n(C)n1 (single isomer, unassigned) [Compound No. 2-127]
half-life at 5 µM ([5]; Diastereoisomer A): 0.29 h
Papp A→B at 60 min [6, 12]: 11.8 ×10⁻⁶ cm/s
half-life at 5 µM [7, 13]: < 0.25 h
PANK2−/− CoA (Fold Increase): fold increase in Coenzyme A (CoA) levels relative to controls [2]: 14.41 Fold Increase

Compound: CCC(CC)COC(=O)[C@H](C)NP1(=O)OCC(C)(C)[C@H](C(=O)NCCC(=O)OC)O1 (stereo partly drawn) [compound 7, 2-ethylbutyl ((4R)-4-((3-methoxy-3-oxopropyl)carbamoyl)-5,5-dimethyl-2-oxido-1,3,2-dioxaphosphinan-2-yl)-L-alaninate]
PANK2−/− CoA (Fold Increase): fold increase in Coenzyme A (CoA) levels relative to controls [2]: 1.56 Fold Increase
half-life (physchem; [15]): > 40 h

Compound: COC(=O)CCNC(=O)[C@@H]1OP(N)(=O)OCC1(C)C (stereo partly drawn) [compound 114, methyl 3-((4R)-2-amino-5,5-dimethyl-2-oxido-1,3,2-dioxaphosphinane-4-carboxamido)propanoate]
half-life (physchem; [15]): > 40 h
half-life (physchem; [16]): > 40 h

Compound: COC(=O)CCNC(=O)[C@@H]1OP(=O)(NCCc2ccncc2)OCC1(C)C (stereo partly drawn) [compound 111, methyl 3-((4R)-5,5-dimethyl-2-oxido-2-((2-(pyridin-4-yl)ethyl)amino)-1,3,2-dioxaphosphinane-4-carboxamido)propanoate]
half-life ([5]; Diastereoisomer A (upfield shift in 31P NMR), 5 μM, 1 million cells/ml, 37° C., human hepatocytes, read-out: t1/2, Human Hepatocytes, Diastereoisomer A (converted)): 2.85 h
Papp A→B at 60 min [6, 12]: 0.7 ×10⁻⁶ cm/s
half-life at 5 µM ([7]; Diastereoisomer A (upfield shift in 31P NMR), 5 μM, 1 million cells/ml, 37° C., mouse hepatocytes, read-out: t1/2, Mouse Hepatocytes, Diastereoisomer A (converted)): 0.48 h

Compound: COC(=O)CCNC(=O)[C@@H]1OP(=O)(NCC2CCCO2)OCC1(C)C (stereo partly drawn) [compound 116, methyl 3-((4R)-5,5-dimethyl-2-oxido-2-(((tetrahydrofuran-2-yl)methyl)amino)-1,3,2-dioxaphosphinane-4-carboxamido)propanoate]
half-life (physchem; [15]): > 40 h
half-life (physchem; [16]): > 40 h

The next lines start with results.

half-life at 3 µM [1]: < 9.6 min
t1/2, Mouse Plasma, Diastereoisomer B [1]: <9.6 min
half-life at 3 µM [3, 8]: > 1 h
half-life at 3 µM [3, 9]: > 1 h
half-life at 1 mM [4, 10]: 23.5 h
half-life at 1 mM [4, 11]: 5.1 h
Compound: COC(=O)CCNC(=O)[C@@H]1OP(=O)(OCCCN2CCOCC2)OCC1(C)C (stereo partly drawn) [compound 52, methyl 3-((4R)-5,5-dimethyl-2-(3-morpholinopropoxy)-2-oxido-1,3,2-dioxaphosphinane-4-carboxamido)propanoate]
PANK2−/− CoA (Fold Increase): fold increase in Coenzyme A (CoA) levels relative to controls [2]: 1.58 Fold Increase

half-life at 5 µM ([5]; Diastereoisomer A): < 0.25 h
Papp A→B at 60 min [6, 12]: 18.7 ×10⁻⁶ cm/s
half-life at 5 µM [7, 13]: < 0.25 h
half-life at 1 mM [4, 10]: 4.6 h
Compound: COC(=O)CCNC(=O)[C@@H]1O[P@@](=O)(OCc2ccccc2)OCC1(C)C [compound 56, methyl 3-((2S,4R)-2-(benzyloxy)-5,5-dimethyl-2-oxido-1,3,2-dioxaphosphinane-4-carboxamido)propanoate]

half-life at 5 µM ([5]; Diastereoisomer A): 0.57 h
half-life at 5 µM ([5]; Diastereoisomer B): < 0.25 h
half-life at 5 µM [7, 13]: 0.28 h
half-life at 5 µM [7, 14]: < 0.25 h
half-life at 1 mM [4, 10]: > 80 h
half-life at 1 mM [4, 11]: > 80 h
Compound: COC(=O)CCNC(=O)[C@@H]1OP(=O)(OCCCOCc2ccccc2)OCC1(C)C (stereo partly drawn) [compound 53, methyl 3-((4R)-2-(3-(benzyloxy)propoxy)-5,5-dimethyl-2-oxido-1,3,2-dioxaphosphinane-4-carboxamido)propanoate]

half-life at 5 µM ([5]; Diastereoisomer A): 1.26 h
half-life at 5 µM ([5]; Diastereoisomer B): 1.16 h
half-life at 5 µM [7, 13]: 0.37 h
half-life at 5 µM [7, 14]: 0.31 h
half-life at 3 µM [1]: < 9.6 min
t1/2, Mouse Plasma, Diastereoisomer B [1]: <9.6 min
half-life at 3 µM [3, 8]: 0.45 h
half-life at 3 µM [3, 9]: > 1 h
half-life at 1 mM [4, 10]: 4.7 h
half-life at 1 mM [4, 11]: 3.7 h
Compound: COC(=O)[C@H](C)NP1(=O)OCC(C)(C)[C@H](C(=O)NCCC(=O)OCCN2CCCC2)O1 (stereo partly drawn) [compound 19, methyl ((4R)-5,5-dimethyl-2-oxido-4-((3-oxo-3-(2-(pyrrolidin-1-yl)ethoxy)propyl)carbamoyl)-1,3,2-dioxaphosphinan-2-yl)-L-alaninate]
PANK2−/− CoA (Fold Increase): fold increase in Coenzyme A (CoA) levels relative to controls [2]: 1.73 Fold Increase

half-life at 1 mM ([4]; pH 7.5, t1/2 (h), pH 7.5, 37° C., compound not chiral at phosphorous, one value spanning both columns): > 60 h
Compound: COC(=O)CCNC(=O)[C@@H]1OP(=O)(O)OCC1(C)C [compound 55, methyl 3-((4R)-2-hydroxy-5,5-dimethyl-2-oxido-1,3,2-dioxaphosphinane-4-carboxamido)propanoate]
PANK2−/− CoA (Fold Increase): fold increase in Coenzyme A (CoA) levels relative to controls [2]: 1.92 Fold Increase

half-life at 5 µM ([5]; Diastereoisomer A): 2.89 h
half-life at 5 µM ([5]; Diastereoisomer B): 1.54 h
half-life at 5 µM [7, 13]: 0.34 h
half-life at 5 µM [7, 14]: < 0.25 h
half-life at 1 mM [4, 10]: 80 h
half-life at 1 mM [4, 11]: 6 h
Compound: COC(=O)CCNC(=O)[C@H](O)C(C)(C)COP1(=O)OCC(C)(C)[C@H](C(=O)NCCC(=O)OC)O1 (stereo partly drawn) [compound 59, methyl 3-((2R)-2-hydroxy-4-(((4R)-4-((3-methoxy-3-oxopropyl)carbamoyl)-5,5-dimethyl-2-oxido-1,3,2-dioxaphosphuian-2-yl)oxy)-3,3-dimethylbutanamido) propanoate]
PANK2−/− CoA (Fold Increase): fold increase in Coenzyme A (CoA) levels relative to controls [2]: 1.52 Fold Increase

half-life at 1 mM [4, 10]: > 80 h
Compound: COC(=O)CCNC(=O)[C@@H]1O[P@@](=O)(OCCC(C)C)OCC1(C)C [compound 50, methyl 3-((2S,4R)-2-(isopentyloxy)-5,5-dimethyl-2-oxido-1,3,2-dioxaphosphinane-4-carboxamido)propanoate]

half-life at 5 µM ([5]; Diastereoisomer B): < 0.25 h
Papp A→B at 60 min ([6]; Diastereoisomer B, read-out: Papp Diastereoisomer B): 11.5 ×10⁻⁶ cm/s
half-life at 5 µM [7, 14]: < 0.25 h
Compound: CCc1cc(C(=O)OCO[P@]2(=O)OCC(C)(C)[C@H](C(=O)NCCC(=O)OC)O2)n(C)n1 (single isomer, unassigned) [Compound No. 2-129]
PANK2−/− CoA (Fold Increase): fold increase in Coenzyme A (CoA) levels relative to controls [2]: 88.66 Fold Increase
